Experimental findings from PubChem BioAssay (NCI) are described below.

Test systems include DMS 273 small cell lung; DLD-1 colon; EKVX NSCLC; LOX IMVI melanoma; M19-MEL melanoma; HOP-18 NSCLC; XF 498 CNS; SNB-78 CNS; BT-549 breast; HS 578T breast; DU-145 prostate; NCI-H522 lung; MDA-N; PC-3 prostate; P388 leukemia; P388/ADR leukemia.
Test in all cases: NCI tumour cell line growth inhibition, 48 h

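Where inhibition never reached the appropriate level, the endpoint shown equals the highest concentration tested. Otherwise, values were interpolated linearly from a five-concentration, 48-hour dose response in 96-well plates. GI50 marks 50% less growth. Definition used: TGI = concentration required for complete inhibition of growth.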

Take `N=C(N)c1csc([C@@H]2O[C@H](CO)[C@@H](O)[C@H]2O)n1`: the TGI in the assay on DMS 273 small cell lung, in the assay with DLD-1 colon, in the assay on EKVX NSCLC, with LOX IMVI melanoma, with M19-MEL melanoma and with HOP-18 NSCLC was over 100 µM in each case. For the same compound, the TGI with XF 498 CNS and in the assay with SNB-78 CNS was over 100 µM each time.
On to `c1cn2cc(-c3ccc4ncn(C5CCCCC5)c4c3)nc(-c3ccc4c(c3)ncn4C3CCCCC3)c2n1`, for which the GI50 in the assay on BT-549 breast was 1940 nM; in the assay with HS 578T breast, 2390 nM. The TGI in the assay on BT-549 breast stood at 3.64 µM; with HS 578T breast, 6.74 µM.
Regarding `CCC(=O)NC(Nc1ccc(O)cc1)(C(F)(F)F)C(F)(F)F`, the TGI is over 100 µM with DU-145 prostate; over 100 µM with EKVX NSCLC; 66.6 µM in the assay on NCI-H522 lung; over 100 µM with LOX IMVI melanoma; 35.3 µM in the assay on MDA-N; over 100 µM with BT-549 breast. In the assay on HS 578T breast, this compound registered a TGI of over 100 µM.
For the compound `Nc1ccc2c3c(n(CCCCl)c(=O)c2c1)-c1cc2c(cc1C3=O)OCO2`, in the assay on LOX IMVI melanoma, the GI50 is over 100 µM and the TGI was over 100 µM. In the assay with PC-3 prostate, the GI50 was over 100 µM and the TGI is over 100 µM.
As for `CC(C)(C)[Si](C)(C)OCC1CCC(n2cnc3c(N)ncnc32)O1` (configuration not stated), the TGI is over 100 µM in the assay with DU-145 prostate; over 100 µM in the assay on LOX IMVI melanoma; over 100 µM with PC-3 prostate; over 100 µM in the assay with MDA-N; 87 µM in the assay with BT-549 breast; over 100 µM in the assay on HS 578T breast.
With `NC(CCP(=O)(O)CCC1C=CC=CC1)C(=O)O` (configuration not stated), the TGI in the assay with DU-145 prostate was over 100 µM; in the assay on EKVX NSCLC it was over 100 µM; in the assay with NCI-H522 lung, 55.4 µM; with LOX IMVI melanoma it was over 100 µM; in the assay with PC-3 prostate it was over 100 µM; in the assay with MDA-N it was over 100 µM. Further, the TGI with BT-549 breast and with HS 578T breast was over 100 µM throughout.
For `COC(=O)c1ccc(N=NN(C)COc2ccc([N+](=O)[O-])cc2)cc1`, the TGI in the assay with DMS 273 small cell lung, in the assay with DLD-1 colon, in the assay on EKVX NSCLC, in the assay with NCI-H522 lung, with LOX IMVI melanoma and with M19-MEL melanoma was over 100 µM throughout. The TGI in the assay on XF 498 CNS, in the assay on SNB-78 CNS, in the assay with P388 leukemia and in the assay with P388/ADR leukemia was over 100 µM throughout.
Take `COc1cc(C2=C(C#N)C(N)OC3=C2COc2ccccc23)cc(OC)c1OC` (configuration not stated): the TGI in the assay with DU-145 prostate was 25.8 µM; in the assay on EKVX NSCLC it was 43.7 µM; in the assay on LOX IMVI melanoma it was over 100 µM; with PC-3 prostate, 50.6 µM; in the assay on MDA-N it was over 100 µM; in the assay on BT-549 breast it was over 100 µM.
Turning to `NNc1nc2ccccc2s1`, the TGI with DU-145 prostate, in the assay on EKVX NSCLC, in the assay with NCI-H522 lung, in the assay with LOX IMVI melanoma, in the assay with PC-3 prostate and in the assay on MDA-N was over 100 µM in each case. Further, the TGI in the assay on BT-549 breast and in the assay with HS 578T breast was over 100 µM in each case.
Turning to `O=C(O)C1Cc2c([nH]c3ccccc23)C=N1` (configuration not stated), the TGI in the assay with DMS 273 small cell lung, in the assay with DLD-1 colon, in the assay on EKVX NSCLC, in the assay on NCI-H522 lung, with LOX IMVI melanoma and in the assay with M19-MEL melanoma was over 100 µM in each case. In addition, the TGI with HOP-18 NSCLC, in the assay on XF 498 CNS, with SNB-78 CNS, with P388 leukemia and in the assay with P388/ADR leukemia was over 100 µM in each case.
